Data: publication PMC9268414, “Screening an In-House Isoquinoline Alkaloids Library for New Blockers of Voltage-Gated Na^+ Channels Using Voltage Sensor Fluorescent Probes: Hits and Biases” (Molecules, 2022)
Where two headings read alike, the source gives them in different places.

Assays:
hNaV1.6 channel = target: T1, hNaV1.6 channel (Homo sapiens, UniProt Q9UQD0); test: Automated patch-clamp, Na+ currents in HEK293-hNaV1.6 cells; type: cell-based; conditions: 10 µM; for Effect on Na+ currents elicited by hNaV1.6: HEK293-hNaV1.6; for Change in V1/2 of activation and inactivation vs control: hNaV1.6
T1 construct: expressed in transfected cells
T1 sequence (Q9UQD0 whole entry): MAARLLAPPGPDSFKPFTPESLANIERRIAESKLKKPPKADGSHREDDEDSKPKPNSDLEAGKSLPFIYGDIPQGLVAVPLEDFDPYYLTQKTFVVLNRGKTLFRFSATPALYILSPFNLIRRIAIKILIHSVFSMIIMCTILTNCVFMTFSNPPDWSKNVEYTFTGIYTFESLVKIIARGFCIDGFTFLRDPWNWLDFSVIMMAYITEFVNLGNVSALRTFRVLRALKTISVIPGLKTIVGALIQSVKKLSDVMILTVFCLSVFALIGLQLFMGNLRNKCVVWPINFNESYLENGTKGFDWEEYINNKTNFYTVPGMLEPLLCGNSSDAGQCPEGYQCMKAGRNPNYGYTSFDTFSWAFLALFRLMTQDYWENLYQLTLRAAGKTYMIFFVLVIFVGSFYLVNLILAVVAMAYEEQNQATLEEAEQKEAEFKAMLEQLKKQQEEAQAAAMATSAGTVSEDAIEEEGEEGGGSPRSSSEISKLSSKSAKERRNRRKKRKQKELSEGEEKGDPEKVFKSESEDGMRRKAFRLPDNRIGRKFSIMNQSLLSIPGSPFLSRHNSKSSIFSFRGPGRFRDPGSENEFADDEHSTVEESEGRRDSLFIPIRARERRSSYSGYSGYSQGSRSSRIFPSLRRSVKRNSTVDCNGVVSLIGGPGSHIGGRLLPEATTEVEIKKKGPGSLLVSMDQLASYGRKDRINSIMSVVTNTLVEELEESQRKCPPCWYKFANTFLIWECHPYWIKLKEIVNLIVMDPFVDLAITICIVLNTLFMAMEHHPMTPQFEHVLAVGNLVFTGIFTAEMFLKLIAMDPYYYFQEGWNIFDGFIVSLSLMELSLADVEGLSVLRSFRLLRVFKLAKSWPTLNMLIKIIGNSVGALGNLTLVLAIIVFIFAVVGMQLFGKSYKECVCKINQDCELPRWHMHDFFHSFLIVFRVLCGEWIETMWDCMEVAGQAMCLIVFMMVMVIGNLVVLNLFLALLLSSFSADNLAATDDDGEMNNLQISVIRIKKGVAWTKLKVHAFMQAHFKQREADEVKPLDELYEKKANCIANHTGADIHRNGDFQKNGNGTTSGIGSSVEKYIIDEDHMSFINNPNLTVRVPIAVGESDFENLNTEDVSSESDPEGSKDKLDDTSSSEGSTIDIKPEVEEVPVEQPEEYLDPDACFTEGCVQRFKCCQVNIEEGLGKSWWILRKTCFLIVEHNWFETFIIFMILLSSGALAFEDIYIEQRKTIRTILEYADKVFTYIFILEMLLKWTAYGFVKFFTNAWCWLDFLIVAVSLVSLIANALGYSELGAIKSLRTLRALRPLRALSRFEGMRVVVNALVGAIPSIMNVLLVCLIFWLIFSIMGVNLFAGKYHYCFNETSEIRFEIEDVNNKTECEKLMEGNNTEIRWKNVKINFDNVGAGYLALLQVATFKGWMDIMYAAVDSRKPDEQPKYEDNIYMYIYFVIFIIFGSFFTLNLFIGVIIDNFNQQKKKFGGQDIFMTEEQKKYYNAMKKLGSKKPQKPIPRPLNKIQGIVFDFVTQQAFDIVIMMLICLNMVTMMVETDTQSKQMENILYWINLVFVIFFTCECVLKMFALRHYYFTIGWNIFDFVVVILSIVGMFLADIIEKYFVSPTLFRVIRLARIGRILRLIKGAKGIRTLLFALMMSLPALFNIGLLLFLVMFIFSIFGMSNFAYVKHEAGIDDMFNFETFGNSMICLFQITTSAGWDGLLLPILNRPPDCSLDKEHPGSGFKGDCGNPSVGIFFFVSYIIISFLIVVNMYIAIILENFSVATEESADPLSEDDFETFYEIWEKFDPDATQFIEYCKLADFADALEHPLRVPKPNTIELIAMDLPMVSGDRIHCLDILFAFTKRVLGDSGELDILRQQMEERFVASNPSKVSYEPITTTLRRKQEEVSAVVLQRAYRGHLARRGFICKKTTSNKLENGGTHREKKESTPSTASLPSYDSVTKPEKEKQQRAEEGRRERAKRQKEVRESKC
Description: (§1) GH3b6 cells are a subclone of the GH3 pituitary cell line and were a generous gift from Dr. Françoise Macari (IGF, Montpellier, France). GH3b6 cells were cultivated from passage 14 until passage 32 at 37 °C/5% CO2 in Dubelcco’s Modified Eagle Medium (DMEM)/F12 (Lonza, Basel, Switzerland), supplemented with 10% FBS (Lonza, Basel, Switzerland), 1 mM L-glutamine, and 1 mM penicillin and streptomycin solution. For the fluorescence assay, the GH3b6 cells were seeded in black-walled, clear-bottom, 96-well, tissue culture-treated, and sterile imaging plates (Corning Hazebrouck, France), at a density of 10,000 cells per well, and incubated for 24 h before starting the experiment. The human Nav1.3 (hNav1.3) channel-expressing cell line (HEK293) used in this work was a generous gift from Massimo Mantegazza (IPMC, Nice, France). HEK293-hNaV1.3 cells were cultivated from passage 20 until passage 35 at 37 °C/5% CO2 in a DMEM high glucose medium (4.5 g/l), supplemented with 10% FBS, pyruvate, L-glutamine, and penicillin and streptomycin solution, each one at 1 mM, completed with 800 µg/mL geneticin G418. For the fluorescence assays, the cells were plated at a density of 50,000 cells per well in black-walled, clear-bottom, 96-well plates and then cultured at 37 °C and 5% CO2 for 24 h before the experiments. HEK293 stably expressing hNaV1.2 and hNaV1.6 were cultivated in the same conditions mentioned above for the HEK293-hNaV1.3 cells. For the automated patch-clamp experiments, cells were passaged from 24 to 48 h prior to the experiment and replated in the appropriate quantity to reach 50–70% confluence. For electrophysiological recordings, cells were detached with trypsin-EDTA and diluted in a culture medium. Then, the cells were centrifuged at 800 rpm for 4 min and resuspended (~300,000 cells/mL) in a patch-clamp extracellular solution.
(§2) Whole-cell recordings were used to investigate the effects of oxostephanine, liriodenine, thalmiculine, bebeerine, and protopine on HEK293 cells stably expressing the hNav1.2, hNav1.3, and hNav1.6 channels. Automated patch-clamp recordings were performed using the SyncroPatch 384PE from Nanion (München, Germany). Chips with a single hole (n = 384, series resistance 3.93 ± 1.19 MΩ) were used for HEK293 cell recordings. Pulse generation and data collection were performed with the PatchControl384 v1.9.7 software (Nanion) and the Biomek interface (Beckman Coulter). Whole-cell recordings were conducted according to the recommended procedures of Nanion. The cells were stored in a cell hotel reservoir at 10 °C, with a shaking speed of 60 RPM. After initiating the experiment, cell catch, sealing, whole-cell formation, liquid application, recording, and data acquisition were all performed sequentially and automatically. The intracellular solution contained (in mM): 10 CsCl, 110 CsF, 10 NaCl, 10 EGTA, and 10 HEPES (pH 7.2, osmolarity 280 mOsm), and the extracellular solution contained (in mM): 60 NMDG, 80 NaCl, 4 KCl, 2 CaCl2, 1 MgCl2, 5 Glucose, and 10 HEPES (pH 7.4 (NaOH), osmolarity 280 ± 3 mOsm). Whole-cell experiments were performed at a holding potential of −100 mV at room temperature (18–22 °C). Currents were sampled at 20 kHz. For pharmacological assays, alkaloid solutions were prepared at 30 µM in the extracellular solution supplemented with 0.3% bovine serum albumin and distributed in 384-well compound plates according to a pre-established plate plan. This distribution within compound plates could not be randomized since it would then excessively complexify the methods of analyses. The working compound solution was diluted 3 times in the patch-clamp recording well by adding from 30 to 60 µL of the external solution to reach the final reported concentration and the test volume of 90 µL. The effects of IA (10 µM) or of BTX (1 µM) were measured at the end of a 10 min application time. Activation curves were built by depolarizations lasting for 2000 ms, from −130 mV to 40 mV, using 5 mV increment steps. […]

human NaV1.3 channel = human NaV1.3 channel (Homo sapiens, UniProt Q9NY46); test: ANG-2 intracellular Na+ fluorescent assay in HEK293-hNaV1.3 cells; type: cell-based
Sequence of human NaV1.3 channel (Q9NY46 whole entry): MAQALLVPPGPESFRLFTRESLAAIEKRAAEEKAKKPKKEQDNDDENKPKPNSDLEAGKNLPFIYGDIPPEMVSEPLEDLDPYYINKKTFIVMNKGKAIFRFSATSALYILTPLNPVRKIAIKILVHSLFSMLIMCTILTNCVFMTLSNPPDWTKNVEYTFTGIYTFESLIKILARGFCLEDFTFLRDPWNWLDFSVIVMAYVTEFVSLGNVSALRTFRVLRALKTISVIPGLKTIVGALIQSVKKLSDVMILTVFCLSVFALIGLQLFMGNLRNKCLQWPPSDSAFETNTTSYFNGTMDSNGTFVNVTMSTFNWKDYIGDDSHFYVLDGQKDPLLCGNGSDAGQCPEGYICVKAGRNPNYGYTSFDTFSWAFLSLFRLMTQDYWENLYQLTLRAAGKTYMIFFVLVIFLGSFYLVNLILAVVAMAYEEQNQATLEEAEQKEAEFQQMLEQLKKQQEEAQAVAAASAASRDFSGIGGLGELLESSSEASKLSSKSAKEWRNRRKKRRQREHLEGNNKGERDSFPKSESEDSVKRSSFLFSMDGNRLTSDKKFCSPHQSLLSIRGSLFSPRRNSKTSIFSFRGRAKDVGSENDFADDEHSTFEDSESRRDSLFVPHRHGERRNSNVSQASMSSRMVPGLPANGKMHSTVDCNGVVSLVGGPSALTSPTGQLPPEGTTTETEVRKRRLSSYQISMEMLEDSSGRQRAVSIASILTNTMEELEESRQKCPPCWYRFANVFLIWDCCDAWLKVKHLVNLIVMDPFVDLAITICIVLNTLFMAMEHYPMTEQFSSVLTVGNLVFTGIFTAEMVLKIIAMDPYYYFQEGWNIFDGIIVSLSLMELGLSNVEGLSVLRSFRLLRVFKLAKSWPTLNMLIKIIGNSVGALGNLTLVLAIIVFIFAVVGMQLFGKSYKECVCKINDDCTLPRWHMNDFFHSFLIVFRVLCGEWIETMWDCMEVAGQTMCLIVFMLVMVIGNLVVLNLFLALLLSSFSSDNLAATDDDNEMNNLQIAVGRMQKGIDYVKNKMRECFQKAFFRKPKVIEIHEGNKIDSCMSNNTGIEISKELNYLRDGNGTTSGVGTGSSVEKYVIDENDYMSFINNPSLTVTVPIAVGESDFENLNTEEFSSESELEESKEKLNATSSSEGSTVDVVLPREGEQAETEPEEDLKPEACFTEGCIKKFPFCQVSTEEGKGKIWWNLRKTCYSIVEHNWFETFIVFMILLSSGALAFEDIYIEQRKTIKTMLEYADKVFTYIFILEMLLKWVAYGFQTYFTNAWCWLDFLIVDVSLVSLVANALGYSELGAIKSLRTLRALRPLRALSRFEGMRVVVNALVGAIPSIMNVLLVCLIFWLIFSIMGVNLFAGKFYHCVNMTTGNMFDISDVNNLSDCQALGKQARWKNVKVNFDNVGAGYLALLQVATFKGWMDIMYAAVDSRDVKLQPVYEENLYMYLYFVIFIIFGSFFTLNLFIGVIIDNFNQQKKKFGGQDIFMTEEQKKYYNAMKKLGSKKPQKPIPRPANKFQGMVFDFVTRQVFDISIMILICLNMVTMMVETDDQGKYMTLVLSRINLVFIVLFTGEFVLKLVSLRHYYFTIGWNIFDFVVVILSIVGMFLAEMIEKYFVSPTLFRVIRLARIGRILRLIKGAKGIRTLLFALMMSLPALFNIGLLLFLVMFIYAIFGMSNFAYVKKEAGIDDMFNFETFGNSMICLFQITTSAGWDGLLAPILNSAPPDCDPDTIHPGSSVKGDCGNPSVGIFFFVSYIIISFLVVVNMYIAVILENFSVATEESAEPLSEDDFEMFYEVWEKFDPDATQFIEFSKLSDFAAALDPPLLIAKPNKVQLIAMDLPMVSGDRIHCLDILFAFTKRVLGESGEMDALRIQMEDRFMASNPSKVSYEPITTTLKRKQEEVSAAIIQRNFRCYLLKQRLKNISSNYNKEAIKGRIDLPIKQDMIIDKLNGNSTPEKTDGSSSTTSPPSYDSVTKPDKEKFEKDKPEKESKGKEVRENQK

hNaV1.2 channel = target: T2, hNaV1.2 channel (Homo sapiens, UniProt Q99250); test: Automated patch-clamp, Na+ currents in HEK293-hNaV1.2 cells; type: cell-based; conditions: 10 µM; for Effect on Na+ currents elicited by hNaV1.2: HEK293-hNaV1.2; for Change in V1/2 of activation and inactivation vs control: hNaV1.2
T2 construct: expressed in transfected cells
Description: as §1, §2

hNaV1.3 channel = target: T3, hNaV1.3 channel (Homo sapiens, UniProt Q9NY46); test: Automated patch-clamp, Na+ currents in HEK293-hNaV1.3 cells; type: cell-based; conditions: for Effect on Na+ currents elicited by hNaV1.3 / Change in V1/2 of activation and inactivation vs control: 10 µM; for Effect on Na+ currents elicited by hNaV1.3: HEK293-hNaV1.3, without BTX
T3 construct: expressed in transfected cells
T3 sequence (Q9NY46 whole entry): as above
Description: as §1, §2

[1] = system: NaV channels endogenously expressed in GH3b6 cells; test: FRET voltage sensor probe (VSP) assay of BTX-induced depolarization in GH3b6 cells; type: cell-based, rat; conditions: for Maximum of Inhibition of BTX-evoked VSP signal / IC50 / Inhibitory Effects (%) on BTX-induced VSP signal (screening): GH3b6 cells; for Maximum of Inhibition of BTX-evoked VSP signal / IC50: BTX 1 µM, n = 6; for Maximum of Inhibition of BTX-evoked VSP signal: % printed only; for IC50: read-out: IC50 (µM), inhibition of BTX-evoked VSP signal; for Inhibitory Effects (%) on BTX-induced VSP signal (screening): IA at 10–50 µg/mL co-incubated with 1 µM BTX
[2] = system: Na+ currents recorded in isolated cardiomyocytes; conditions: cited from earlier work
[3] = IA at 10 µM, BTX 3 µM, HEK293-hNaV1.3
[4] = 10 µM IA in the presence of 1 µM BTX

Compound | Effect on Na+ currents elicited by hNaV1.6 (hNaV1.6 channel) | Change in V1/2 of activation and inactivation vs control (hNaV1.6 channel) | Inhibition of BTX-induced [Na+]i elevation (ANG-2 signal) (human NaV1.3 channel; [3]) | Effect on Na+ currents elicited by hNaV1.2 (hNaV1.2 channel) | Change in V1/2 of activation and inactivation vs control (hNaV1.2 channel) | Effect on Na+ currents elicited by hNaV1.3 (hNaV1.3 channel) | Change in V1/2 of activation and inactivation vs control (hNaV1.3 channel; hNaV1.3) | Maximum of Inhibition of BTX-evoked VSP signal [1] [%] | IC50 [1] [µM] | Inhibitory Effects (%) on BTX-induced VSP signal (screening) [1] [%] | inhibition at 10 µM (human NaV1.3 channel; IA at 10 µM, BTX 3 µM, HEK293-hNaV1.3, read-out: Inhibition of BTX-induced [Na+]i elevation (ANG-2 signal)) [%] | Effect on V1/2 activation of hNaV1.3 (hNaV1.3 channel; [4]) | Effect on current densities of hNaV1.3 at −60 mV (hNaV1.3 channel; [4]) | Effect on slow-down of inactivation induced by BTX (AUC) (hNaV1.3 channel; 10 µM IA, BTX 1 µM, hNaV1.3) | IC50 ([1]; listed as liriodenine) [µM] | IC50, suppression of Na+ currents in isolated cardiomyocytes [2] | Inhibition of BTX-induced ANG-2 fluorescence ratio (human NaV1.3 channel) [%] | Effect on VSP fluorescence emission ratio induced by BTX [1] | IC50 of TTX on VSP signal ratio induced by BTX [1] [µM]
thalmiculine [IA49] | no effects | ns | no significant inhibitory effects | no effects | ns | no effects | ns | 31.07 ± 4.04 | 0.38 ± 0.19 | 91.1 |  |  |  |  |  |  |  |  | 
COc1ccc2cc1-c1cc(ccc1O)C[C@H]1c3cc4c(cc3CCN1C)Oc1c(OC)cc3c(c1O4)[C@H](C2)N(C)CC3 [IA31, tiliacorinine] |  |  |  |  |  |  |  |  |  | 92.8 |  |  |  |  |  |  |  |  | 
O=C1c2ccccc2-c2c3c(cc4ccnc1c24)OCO3 [IA39, liriodenine] | no effects | ns |  | no effects | ns | no effects | ns | 83.78 ± 6.59 | 5 ± 0.1 | 99.1 | 50 ± 10 | positively shifted | significantly decreased | significantly decreased | 5 to 6 | micromolar range |  |  | 
protopine [IA69] | no effects | ns | no significant inhibitory effects | no effects | ns | no effects | ns | 64.67 ± 5.50 | 3.97 ± 0.1 | 99.9 |  |  |  |  |  |  |  |  | 
NC1=N[C@H](O)[C@H]2[C@H]3O[C@]4(O)O[C@@H]([C@@H](O)[C@@]2(N1)[C@@H]4O)[C@]3(O)CO [TTX, tetrodotoxin, reference compound] |  |  |  |  |  |  |  |  |  |  |  |  |  |  |  |  | 92 ± 5 | fully abolished | 0.00858 ± 0.00167
gyrocarpusine [IA42] |  |  |  |  |  |  |  |  |  | 78.5 |  |  |  |  |  |  |  |  | 
